Measured values reported in US8937072B2, “Substituted cyanoaniline compounds, preparation and use thereof” (Sinochem Corporation, priority 2011, dated 2015).
Where two headings read alike, the source gives them in different places.

How the values were obtained:
[1] = tested on: cucumber downy mildew; experiment: Protectant activity in vivo (whole plant) against cucumber downy mildew; details: for pest or weed control at 12.5 µg/mL: 12.5 mg/L
Experimental: (§1) The method is as followed: The whole plant is used in this test. The compound is dissolved in a proper solvent to get mother solution. The proper solvent is selected from acetone, methanol, DMF and so on according to their dissolving capability to the sample. The volume rate of solvent and testing solution (v/v) is equal to or less than 5%. The mother solution is diluted with water containing 0.1% tween-80 to get the testing solution whose concentration is designed. The testing solution is sprayed to the host plant by a special plant sprayer. The plant is inoculated with fungus after 24 hours. According to the infecting characteristic of fungus, the plant is stored in a humidity chamber and then transferred into greenhouse after infection is finished. And the other plants are placed in greenhouse directly. The activity of compound is obtained by eyeballing after 7 days in common.

[2] = tested on: corn rust; experiment: Protectant activity in vivo (whole plant) against corn rust; details: for pest or weed control at 6.25 µg/mL / pest or weed control at 25 µg/mL / pest or weed control at 100 µg/mL / pest or weed control at 400 µg/mL: Zea mays, 168 h
Experimental: as §1

[3] = tested on: cucumber gray mold; experiment: Activity in vitro (96-well, High Through Put): inhibition rate against cucumber gray mold; type: cell-based; details: for inhibition at 0.3 µg/mL: 0.3 mg/L; for inhibition at 0.9 µg/mL: 0.9 mg/L; for inhibition at 8.3 µg/mL: 8.3 mg/L
Experimental: The method is as followed: High Through Put is used in the test. The compound is dissolved in a proper solvent to become a testing solution whose concentration is designed. The solvent is selected from acetone, methanol, DMF and so on according to their dissolving capability to the sample. In a no animalcule condition, the testing solution and pathogens suspension are added into the cells of 96 cells culture board, which then should be placed in the constant temperature box. 24 hours later, pathogen germination or growth can be investigated by eyeballing, and the activity in vitro of the compound is evaluated based on germination or growth of control treatment.

[4] = Cucumis sativus, 168 h, 25 mg/L, read-out: the protectant activity (%) against cucumber downy mildew
[5] = Cucumis sativus, 168 h, 50 mg/L, read-out: the protectant activity (%) against cucumber downy mildew
[6] = Cucumis sativus, 168 h, 100 mg/L, read-out: the protectant activity (%) against cucumber downy mildew
[7] = Cucumis sativus, 168 h, dose 50 mg/L, read-out: protectant activity against cucumber downy mildew in vivo
[8] = 400 mg/L, read-out: the protectant activity (%) against corn rust
[9] = dose 400 mg/L, read-out: protectant activity against corn rust in vivo
[10] = read-out: the inhibition rate against cucumber gray mold (%)
[11] = 2.8 mg/L, read-out: the inhibition rate against cucumber gray mold (%)

## N#Cc1c(Cl)c(Cl)c(C#N)c(Nc2c(Cl)cc([N+](=O)[O-])cc2Cl)c1Cl [Compound C-40]
[1]; dose 25 mg/L
  protectant activity against cucumber downy mildew in vivo: 100%
[1]; dose 50 mg/L
  protectant activity against cucumber downy mildew in vivo: 100%
[1]; dose 100 mg/L
  protectant activity against cucumber downy mildew in vivo: 100%
[1]; dose 400 mg/L
  protectant activity against cucumber downy mildew in vivo: 100%
[2]; 6.25 mg/L
  the protectant activity (%) against corn rust: 30%
[2]; 25 mg/L
  the protectant activity (%) against corn rust: 80%
[2]; 100 mg/L
  the protectant activity (%) against corn rust: 100%
[2]; 400 mg/L
  the protectant activity (%) against corn rust: 100%
[2]; dose 100 mg/L
  protectant activity against corn rust in vivo: 100%

## N#Cc1c(F)c(F)c(C#N)c(Nc2ccc(O)cc2)c1F [KC16]
[1]; Cucumis sativus, 168 h
  pest or weed control at 12.5 µg/mL: 0%
[1]; [4]
  pest or weed control at 25 µg/mL: 0%
[1]; [5]
  pest or weed control at 50 µg/mL: 0%
[1]; [6]
  pest or weed control at 100 µg/mL: 20%
[1]; [7]
  pest or weed control at 50 µg/mL: 0%
[1]; Cucumis sativus, 168 h, dose 100 mg/L, read-out: protectant activity against cucumber downy mildew in vivo
  pest or weed control at 100 µg/mL: 20%
[2]; 6.25 mg/L
  pest or weed control at 6.25 µg/mL: 0%
[2]; 25 mg/L
  pest or weed control at 25 µg/mL: 0%
[2]; 100 mg/L
  pest or weed control at 100 µg/mL: 0%
[2]; [8]
  pest or weed control at 400 µg/mL: 0%
[2]; [9]
  pest or weed control at 400 µg/mL: 0%

## N#Cc1c(Cl)c(Cl)c(Nc2c(Cl)cc([N+](=O)[O-])cc2Br)c(C#N)c1Cl [Compound B-55]
[2]; 6.25 mg/L
  the protectant activity (%) against corn rust: 0%
[2]; 25 mg/L
  the protectant activity (%) against corn rust: 25%
[2]; 100 mg/L
  the protectant activity (%) against corn rust: 100%
[2]; 400 mg/L
  the protectant activity (%) against corn rust: 100%
[2]; dose 100 mg/L
  protectant activity against corn rust in vivo: 100%
[2]; dose 400 mg/L
  protectant activity against corn rust in vivo: 100%

## Cc1ccc(Nc2c(F)c(F)c(C#N)c(F)c2C#N)cc1 [KC9]
[1]; [4]
  pest or weed control at 25 µg/mL: 20%
[1]; [5]
  pest or weed control at 50 µg/mL: 30%
[1]; [6]
  pest or weed control at 100 µg/mL: 65%
[1]; Cucumis sativus, 168 h, dose 25 mg/L, read-out: protectant activity against cucumber downy mildew in vivo
  pest or weed control at 25 µg/mL: 20%
[1]; [7]
  pest or weed control at 50 µg/mL: 30%
[3]
  inhibition at 0.3 µg/mL: 0%
[3]; [10]
  inhibition at 0.9 µg/mL: 0%
  inhibition at 8.3 µg/mL: 80%
[3]; [11]
  inhibition at 2.8 µg/mL: 0%
[3]; in vitro, dose 2.8 mg/L, read-out: inhibition rate against cucumber gray mold
  inhibition at 2.8 µg/mL: 0%

## N#Cc1c(Cl)c(Cl)c(Nc2ccc(Cl)cc2[N+](=O)[O-])c(Cl)c1C#N [Compound A-23]
[1]; dose 400 mg/L
  protectant activity against cucumber downy mildew in vivo: 100%
[2]; dose 400 mg/L
  protectant activity against corn rust in vivo: 80%

## N#Cc1c(F)c(F)c(C#N)c(Nc2ccc(Cl)cc2Cl)c1F [Compound C-71]
[3]; in vitro, dose 0.9 mg/L
  inhibition rate against cucumber gray mold: 80%

## Cc1ccc(Nc2c(Cl)c(F)c(C#N)c(F)c2C#N)cc1 [KC19]
[2]; 6.25 mg/L
  pest or weed control at 6.25 µg/mL: 0%
[2]; 25 mg/L
  pest or weed control at 25 µg/mL: 0%
[2]; 100 mg/L
  pest or weed control at 100 µg/mL: 0%
[2]; [8]
  pest or weed control at 400 µg/mL: 0%
[2]; [9]
  pest or weed control at 400 µg/mL: 0%
[3]
  inhibition at 0.3 µg/mL: 0%
[3]; [10]
  inhibition at 0.9 µg/mL: 0%
  inhibition at 8.3 µg/mL: 0%
[3]; [11]
  inhibition at 2.8 µg/mL: 0%
[3]; in vitro, dose 25 mg/L
  inhibition at 25 µg/mL: 0%

## N#Cc1c(Cl)c(Cl)c(Nc2cc(C(F)(F)F)ccc2Cl)c(Cl)c1C#N [Compound A-19]
[1]; dose 400 mg/L
  protectant activity against cucumber downy mildew in vivo: 100%
[2]; dose 400 mg/L
  protectant activity against corn rust in vivo: 80%

## N#Cc1c(F)c(Cl)c(Nc2ccc(Cl)cc2)c(C#N)c1F [KC18]
[2]; 6.25 mg/L
  pest or weed control at 6.25 µg/mL: 0%
[2]; 25 mg/L
  pest or weed control at 25 µg/mL: 0%
[2]; 100 mg/L
  pest or weed control at 100 µg/mL: 0%
[2]; [8]
  pest or weed control at 400 µg/mL: 0%
[2]; [9]
  pest or weed control at 400 µg/mL: 0%

## N#Cc1c(F)c(Cl)c(Nc2ccccc2)c(C#N)c1F [KC17]
[1]; Cucumis sativus, 168 h
  pest or weed control at 12.5 µg/mL: 0%
[1]; [4]
  pest or weed control at 25 µg/mL: 0%
[1]; [5]
  pest or weed control at 50 µg/mL: 0%
[1]; [6]
  pest or weed control at 100 µg/mL: 0%
[1]; Cucumis sativus, 168 h, dose 400 mg/L
  pest or weed control at 400 µg/mL: 0%
[2]; 6.25 mg/L
  pest or weed control at 6.25 µg/mL: 0%
[2]; 25 mg/L
  pest or weed control at 25 µg/mL: 0%
[2]; 100 mg/L
  pest or weed control at 100 µg/mL: 0%
[2]; [8]
  pest or weed control at 400 µg/mL: 0%
[2]; [9]
  pest or weed control at 400 µg/mL: 0%

## N#Cc1cc(C#N)c(Cl)c(Nc2c(Cl)c(Cl)c(C#N)c(C#N)c2Cl)c1 [Compound A-59]
[1]; dose 400 mg/L
  protectant activity against cucumber downy mildew in vivo: 100%
[2]; dose 400 mg/L
  protectant activity against corn rust in vivo: 100%

## N#Cc1c(Cl)c(Cl)c(C#N)c(Nc2ccc(Cl)c(C(F)(F)F)c2)c1Cl [Compound C-39]
[2]; dose 400 mg/L
  protectant activity against corn rust in vivo: 100%

## N#Cc1c(Cl)c(Cl)c(C#N)c(Nc2cc([N+](=O)[O-])ccc2Cl)c1Cl [Compound C-29]
[2]; dose 400 mg/L
  protectant activity against corn rust in vivo: 80%

## N#Cc1c(F)c(F)c(Nc2c(Cl)cc(C(F)(F)F)cc2Cl)c(C#N)c1F [Compound B-111]
[1]; dose 50 mg/L
  protectant activity against cucumber downy mildew in vivo: 98%
[1]; dose 100 mg/L
  protectant activity against cucumber downy mildew in vivo: 100%
[1]; dose 400 mg/L
  protectant activity against cucumber downy mildew in vivo: 100%
[2]; dose 400 mg/L
  protectant activity against corn rust in vivo: 100%

## Cc1ccccc1Nc1c(Cl)c(Cl)c(C#N)c(Cl)c1C#N [Compound B-1]
[2]; dose 400 mg/L
  protectant activity against corn rust in vivo: 100%
